Literature values as cited in patent US9867849B2, “Methods of treating or ameliorating skin conditions with a magnetic dipole stabilized solution” (REVEN PHARMACEUTICALS, INC., priority 2010, dated 2018).

Legend:
[1] = 241 osteoporotic women, 45 mg/day vitamin K2 and 150 mg elemental calcium, after two years
[2] = rats; 100 mg/kg body weight daily
[3] = rabbits
[4] = more than 500 postmenopausal women; dietary intake
[5] = tested on: blast cell numbers in bone marrow and/or peripheral blood; conditions: of those receiving other medication concomitantly; 20-135 mg/day orally or 10-50 mg/day intravenously
[6] = 121 patients with hepatocellular carcinoma undergoing conventional therapy; 45 mg/day oral
[7] = higher intake of vitamin K2

## CC(C)=CCC/C(C)=C/CC/C(C)=C/CC/C(C)=C/CC1=C(C)C(=O)c2ccccc2C1=O [Vitamin K2]
[1]
  lumbar bone mineral density: maintain lumbar bone mineral density
[1]; 30% in the control group
  fracture incidence: 10%
[2]
  increase in calcium in both kidneys and aorta induced by megadose of synthetic vitamin D: inhibited
[3]; 1-10 mg/kg daily for 10 weeks
  atherosclerotic plaque progression in the aorta and pulmonary arteries: inhibited
[3]; compared to the control group
  ester cholesterol deposition in the aorta: reduce
  factor X activity in plasma: reduce
  lipid peroxidation: reduce
  total cholesterol levels: reduce
[4]
  coronary calcification (association with intake): associated with the trend toward decreasing coronary calcification
[5]
  patients in whom blast cell numbers in bone marrow and/or peripheral blood were reduced: ~71%
[6]
  survival: significant increase in survival
[7]
  reduction of prostate cancer risk: 35%
